Test results taken from PubChem BioAssay (NCI).
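Five compound concentrations were applied to cells in 96-well plates for 48 hours; endpoints were derived by simple linear interpolation of the resulting dose-response curve. TGI: total growth inhibition.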

Assays:
Assay in all cases: NCI anticancer screen, dose series, 48 h
[1] = system: 786-0 renal
[2] = system: A498 renal
[3] = system: A549 NSCLC
[4] = system: ACHN renal
[5] = system: BT-549 breast
[6] = system: CAKI-1 renal
[7] = system: CCRF-CEM leukemia
[8] = system: COLO 205 colon
[9] = system: DU-145 prostate
[10] = system: EKVX NSCLC
[11] = system: HCT-116 colon
[12] = system: HCT-15 colon
[13] = system: HL-60(TB) leukemia
[14] = system: HOP-92 NSCLC
[15] = system: HS 578T breast
[16] = system: HT29 colon
[17] = system: IGROV1 ovarian
[18] = system: K-562 leukemia
[19] = system: KM12 colon
[20] = system: LOX IMVI melanoma
[21] = system: M14 melanoma
[22] = system: MALME-3M melanoma
[23] = system: MCF7 breast
[24] = system: MDA-MB-231 breast
[25] = system: MDA-MB-435
[26] = system: MDA-N
[27] = system: MOLT-4 leukemia
[28] = system: NCI-H226 lung
[29] = system: NCI-H23 lung
[30] = system: NCI-H460 lung
[31] = system: NCI/ADR-RES ovarian
[32] = system: OVCAR-3 ovarian
[33] = system: OVCAR-5 ovarian
[34] = system: OVCAR-8 ovarian
[35] = system: PC-3 prostate
[36] = system: RXF 393 renal
[37] = system: SF-268 CNS
[38] = system: SF-295 CNS
[39] = system: SF-539 CNS
[40] = system: SK-MEL-2 melanoma
[41] = system: SK-MEL-28 melanoma
[42] = system: SK-MEL-5 melanoma
[43] = system: SK-OV-3 ovarian
[44] = system: SN12C renal
[45] = system: SNB-19 CNS
[46] = system: SNB-75 CNS
[47] = system: SW-620 colon
[48] = system: T-47D breast
[49] = system: TK-10 renal
[50] = system: U251 CNS
[51] = system: UACC-257 melanoma
[52] = system: UACC-62 melanoma
[53] = system: UO-31 renal
[54] = system: HCC-2998 colon
[55] = system: HOP-62 NSCLC
[56] = system: OVCAR-4 ovarian
[57] = system: RPMI-8226 leukemia

Q: What does the source list for `CC1C2(C)OCC(C#N)(C(=N)O2)C1(C#N)C#N` (stereo unspecified)?
A: TGI [1]: 55.3 µM; TGI [2]: > 100 µM; TGI [3]: > 100 µM; TGI [4]: > 100 µM; TGI [5]: > 100 µM; TGI [6]: 25 µM; TGI [7]: > 100 µM; TGI [8]: 27.8 µM; TGI [9]: 74.3 µM; TGI [10]: 52.7 µM; TGI [11]: 42.1 µM; TGI [12]: 26.3 µM; TGI [13]: 38.2 µM; TGI [14]: 48.9 µM; TGI [15]: 74.4 µM; TGI [16]: 35.3 µM; TGI [17]: > 100 µM; TGI [18]: > 100 µM; TGI [19]: > 100 µM; TGI [20]: 40.4 µM; TGI [21]: 39.2 µM; TGI [22]: 51.8 µM; TGI [23]: 52.3 µM; TGI [24]: 42.8 µM; TGI [25]: > 100 µM; TGI [26]: 41.7 µM; TGI [27]: > 100 µM; TGI [28]: > 100 µM; TGI [29]: 86.9 µM; TGI [30]: 42.2 µM; TGI [31]: > 100 µM; TGI [32]: 28.4 µM; TGI [33]: 85.6 µM; TGI [34]: 84.2 µM; TGI [35]: 83.3 µM; TGI [36]: 65.7 µM; TGI [37]: 74.3 µM; TGI [38]: > 100 µM; TGI [39]: 57.3 µM; TGI [40]: 33.5 µM; TGI [41]: 97.6 µM; TGI [42]: 23.4 µM; TGI [43]: > 100 µM; TGI [44]: 29.1 µM; TGI [45]: > 100 µM; TGI [46]: > 100 µM; TGI [47]: > 100 µM; TGI [48]: 30.2 µM; TGI [49]: > 100 µM; TGI [50]: 40.4 µM; TGI [51]: 71.2 µM; TGI [52]: 76.1 µM; TGI [53]: > 100 µM

Q: How did the TGI [1] turn out when `CCOC(=O)C(C(=O)COC(C)(C)C)[C@@H]1C=C[C@H](OC(C)=O)C1` (stereo partly specified) was run?
A: > 100 µM

Q: What about the TGI [2] of the same compound?
A: > 100 µM

Q: What about the TGI [3] of the same compound?
A: > 100 µM

Q: And the TGI [4]?
A: > 100 µM

Q: What about the TGI [5] of the same compound?
A: > 100 µM

Q: What about the TGI [6] of the same compound?
A: > 100 µM

Q: What about the TGI [7] of the same compound?
A: > 100 µM

Q: What about the TGI [8] of the same compound?
A: > 100 µM

Q: What about the TGI [10] of the same compound?
A: > 100 µM

Q: What about the TGI [54] of the same compound?
A: > 100 µM

Q: What about the TGI [11] of the same compound?
A: > 100 µM

Q: What about the TGI [12] of the same compound?
A: > 100 µM

Q: What about the TGI [55] of the same compound?
A: > 100 µM

Q: What about the TGI [15] of the same compound?
A: > 100 µM

Q: What about the TGI [16] of the same compound?
A: > 100 µM

Q: What about the TGI [18] of the same compound?
A: > 100 µM

Q: And the TGI [19]?
A: > 100 µM

Q: And the TGI [21]?
A: > 100 µM

Q: What about the TGI [22] of the same compound?
A: > 100 µM

Q: And the TGI [23]?
A: > 100 µM

Q: What about the TGI [24] of the same compound?
A: > 100 µM

Q: What about the TGI [25] of the same compound?
A: > 100 µM

Q: What about the TGI [26] of the same compound?
A: > 100 µM

Q: What about the TGI [27] of the same compound?
A: > 100 µM

Q: What about the TGI [28] of the same compound?
A: > 100 µM

Q: What about the TGI [29] of the same compound?
A: > 100 µM

Q: What about the TGI [30] of the same compound?
A: > 100 µM

Q: And the TGI [31]?
A: > 100 µM

Q: And the TGI [32]?
A: > 100 µM

Q: And the TGI [56]?
A: > 100 µM

Q: What about the TGI [33] of the same compound?
A: > 100 µM

Q: What about the TGI [35] of the same compound?
A: > 100 µM

Q: And the TGI [57]?
A: > 100 µM

Q: What about the TGI [37] of the same compound?
A: > 100 µM

Q: And the TGI [38]?
A: > 100 µM

Q: What about the TGI [39] of the same compound?
A: > 100 µM

Q: What about the TGI [40] of the same compound?
A: > 100 µM

Q: And the TGI [41]?
A: > 100 µM

Q: What about the TGI [43] of the same compound?
A: > 100 µM

Q: What about the TGI [44] of the same compound?
A: > 100 µM

Q: What about the TGI [45] of the same compound?
A: > 100 µM

Q: What about the TGI [46] of the same compound?
A: > 100 µM

Q: What about the TGI [47] of the same compound?
A: > 100 µM

Q: What about the TGI [48] of the same compound?
A: > 100 µM

Q: And the TGI [50]?
A: > 100 µM

Q: And the TGI [51]?
A: > 100 µM

Q: What about the TGI [52] of the same compound?
A: > 100 µM

Q: And the TGI [53]?
A: > 100 µM
